Data: patent publication US4670457A, “2H-benzofuran-3-one-derivatives and process for their preparation” (Farmitalia Carlo Erba, S.p.A., priority 1978, dated 1987)

Assay: Seven days indicative acute toxicity after oral administration
Settings: mouse, in vivo, mice
Procedure: The tested compounds were administered per os (p.o.) 15 minutes before the administration of the antigen: at least 6 rats were used for each dose. Seven days indicative acute toxicity after oral administration was assessed for the compounds of the invention, for example, a LD50 >800 mg/kg in mice was obtained for all the following compounds of the invention: […]

COc1ccc(OC(C)C)c(C=C2Oc3ccc(C(=O)O)cc3C2=O)c1 [K 13432, 5-carboxy-2-(2'-isopropoxy-5'-methoxy-benzylidene)-2H-benzofuran-3-one]
LD50 at 168 h: > 800 mg/kg

COc1ccc(C=C2Oc3ccc(C(=O)O)cc3C2=O)c(OC)c1OC [K 13422, 5-carboxy-2-(2',3',4'-trimethoxy-benzylidene)-2H-benzofuran-3-one]
LD50 at 168 h: > 800 mg/kg

COc1ccccc1C=C1Oc2ccc(C(=O)O)cc2C1=O [5-carboxy-2-(2'-methoxy-benzylidene)-2H-benzofuran-3-one]
LD50 at 168 h: > 800 mg/kg

CC(C)Oc1ccccc1C=C1Oc2ccc(C(=O)O)cc2C1=O [5-carboxy-2-(2'-isopropoxy-benzylidene)-2H-benzofuran-3-one]
LD50 at 168 h: > 800 mg/kg

O=C(O)c1ccc2c(c1)C(=O)C(=Cc1cccs1)O2 [5-carboxy-2-(2'-thenylidene)-2H-benzofuran-3-one]
LD50 at 168 h: > 800 mg/kg

COc1ccc(OC)c(C=C2Oc3ccc(C(=O)O)cc3C2=O)c1 [K 13383, 5-carboxy-2-(2',5'-dimethoxy-benzylidene)-2H-benzofuran-3-one]
LD50 at 168 h: > 800 mg/kg

COc1cc(C=C2Oc3ccc(C(=O)O)cc3C2=O)cc(OC)c1OC [K 13364, 5-carboxy-2-(3',4',5'-trimethoxy-benzylidene)-2H-benzofuran-3-one]
LD50 at 168 h: > 800 mg/kg

COc1cccc(C=C2Oc3ccc(C(=O)O)cc3C2=O)c1 [5-carboxy-2-(3'-methoxy-benzylidene)-2H-benzofuran-3-one]
LD50 at 168 h: > 800 mg/kg

COc1ccc(C=C2Oc3ccc(C(=O)O)cc3C2=O)cc1 [5-carboxy-2-(4'-methoxy-benzylidene)-2H-benzofuran-3-one]
LD50 at 168 h: > 800 mg/kg

COc1ccc(C=C2Oc3ccc(C(=O)O)cc3C2=O)cc1OC [5-carboxy-2-(3',4'-dimethoxy-benzylidene)-2H-benzofuran-3-one]
LD50 at 168 h: > 800 mg/kg

CC(C)Oc1cccc(C=C2Oc3ccc(C(=O)O)cc3C2=O)c1 [5-carboxy-2-(3'-isopropoxy-benzylidene)-2H-benzofuran-3-one]
LD50 at 168 h: > 800 mg/kg
